# Data reported in PMC9074662, “Discovery of dihydrooxazolo[2,3-a]isoquinoliniums as highly specific inhibitors of hCE2” (RSC Advances, 2019).
# “And” between values parts separate entries of the source, which are not always exact repeats. Equal entries are not always repeated.
# Key:
# [1] = target: T1, hCE1 (Homo sapiens, UniProt P23141); assay: hCE1 inhibition assay (DME hydrolysis in human liver microsomes); format: biochemical; conditions: DME probe substrate (3 μM), HLM, PBS pH 6.8, 37 °C
# T1 construct: tissue Bioreclamation IVT lot no; X008067; host or cells: pooled human liver microsomes, 50 donors
# T1 sequence (P23141 18-567): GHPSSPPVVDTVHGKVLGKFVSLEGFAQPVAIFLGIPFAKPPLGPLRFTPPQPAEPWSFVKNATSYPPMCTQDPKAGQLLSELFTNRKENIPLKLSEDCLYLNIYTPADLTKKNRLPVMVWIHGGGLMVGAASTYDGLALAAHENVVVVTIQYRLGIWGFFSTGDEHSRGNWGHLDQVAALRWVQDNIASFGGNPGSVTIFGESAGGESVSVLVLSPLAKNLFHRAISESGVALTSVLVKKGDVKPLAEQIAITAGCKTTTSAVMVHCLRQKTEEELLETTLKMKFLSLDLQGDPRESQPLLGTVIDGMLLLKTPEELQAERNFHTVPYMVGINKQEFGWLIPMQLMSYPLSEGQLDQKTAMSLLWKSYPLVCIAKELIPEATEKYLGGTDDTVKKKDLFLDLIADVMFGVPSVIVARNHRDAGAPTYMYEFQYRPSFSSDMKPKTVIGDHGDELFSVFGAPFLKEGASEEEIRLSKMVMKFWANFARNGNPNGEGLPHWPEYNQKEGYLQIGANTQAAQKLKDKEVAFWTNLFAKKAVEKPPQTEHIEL
# Source text: We designed and synthesized more than 30 derivatives of DCZ0358. However, the five-ring quaternary ammonium component of some derivatives was unstable to decompose easily into its hydrolyzate 23b. With 12 stable compounds in hand, we conducted experiments to assay inhibitory activities against both hCE1 and hCE2 using a panel of fluorescent probe substrates.[33–36]D-Luciferin methyl ester (DME) was used as a probe substrate, and nevadensin (a specific hCE1 inhibitor) was used as a positive inhibitor control for hCE1. […] DME was used as a probe substrate for evaluating the inhibitory effects of all DCZ0358 derivatives on hCE1, while nevadensin (a specific hCE1 inhibitor) was used as a positive control.[39] Briefly, 100 μL incubation mixture containing 91 μL PBS (pH 6.8), 2 μL inhibitor at different concentrations and 5 μL HLM (1 μg mL^−1, final concentration), were pre-incubated at 37 °C for 10 min. Subsequently, 2 μL DME (3 μM final concentration, close to the Km value of DME in HLM) was added to initiate the reaction. After incubating for 10 min at 37 °C in a shaking bath, the reaction was stopped by the addition of LDR (100 μL). The microplate reader (SpectraMax® iD3, Molecular Devices, Austria) was used for luminescence measurements. The gain value of luminescence detection was set at 140 volts, and the integration time was set at 1 s. The chemical structure of DME and its hydrolytic metabolite (D-luciferin), as well as the detection conditions for D-luciferin are depicted in Table S1. ^† The negative control incubation (DMSO only) was carried out under the same conditions. The residual activity was calculated using the following formula, the residual activity (%) = (the florescence intensity in the presence of inhibitor)/the florescence intensity in negative control × 100%. The residual activities are show in Fig. S1. ^†
# [2] = target: T2, hCE2 (Homo sapiens, UniProt O00748); assay: hCE2 inhibition assay (FD hydrolysis in human liver microsomes); format: biochemical; conditions: for IC50: FD probe substrate (5 μM), HLM, PBS pH 7.4, 37 °C; for Selectivity IC50(hCE1)/IC50(hCE2): ratio of IC50 values, hCE2 over hCE1 selectivity (fold)
# T2 construct: tissue Bioreclamation IVT lot no; X008067; host or cells: pooled human liver microsomes, 50 donors
# T2 sequence (O00748 27-559): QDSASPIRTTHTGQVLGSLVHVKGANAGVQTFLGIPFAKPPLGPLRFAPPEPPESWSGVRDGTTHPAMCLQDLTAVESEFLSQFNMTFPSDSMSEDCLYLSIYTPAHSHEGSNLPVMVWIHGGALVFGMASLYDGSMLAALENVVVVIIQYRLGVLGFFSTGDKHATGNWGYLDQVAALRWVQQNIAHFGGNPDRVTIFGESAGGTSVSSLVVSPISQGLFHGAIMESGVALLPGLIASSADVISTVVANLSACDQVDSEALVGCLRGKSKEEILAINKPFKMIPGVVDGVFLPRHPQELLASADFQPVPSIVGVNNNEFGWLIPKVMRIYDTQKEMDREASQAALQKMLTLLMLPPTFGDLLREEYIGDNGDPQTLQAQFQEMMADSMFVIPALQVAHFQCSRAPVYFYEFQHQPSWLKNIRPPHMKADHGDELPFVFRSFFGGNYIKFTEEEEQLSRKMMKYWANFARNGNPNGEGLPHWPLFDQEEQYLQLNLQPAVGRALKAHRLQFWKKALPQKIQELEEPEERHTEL
# Description: In brief, 200 μL incubation mixture containing 0.1 M PBS (PH = 7.4), human liver microsomes (2 μg mL^−1, final concentration) and each inhibitor. […] After incubating for 30 min at 37 °C in a shaking bath, the reaction was stopped by the addition of acetonitrile (200 μL). The chemical structure of FD and its hydrolytic metabolite (fluorescein), as well as the detection conditions for fluorescein are depicted in Table S1. ^† The negative control incubation (DMSO only) was also carried out under the same conditions.[42] The residual activity was calculated using the formula mentioned above in hCE1 inhibition assay.
# [3] = target: T3, intracellular hCE2 (Homo sapiens, UniProt O00748); assay: Inhibition of intracellular hCE2 in living HepG2 cells (NCEN hydrolysis, fluorescence imaging); format: cell-based
# T3 construct: endogenous in cells; host or cells: HepG2
# T3 sequence (O00748 27-559): T2 sequence (O00748 27-559)
# Description: In view of that hCE2 was an intracellular enzyme, the inhibition potential of 23o was investigated in living HepG2 cells. The HepG2 cells were cultured in Modified Eagle's Medium (MEM) with 5% CO2 and 0.1% antibiotic–antimycoticmix antibiotic at 37 °C, supplemented with 10% fetal bovine serum (FBS) and used NCEN as substrate probe to assay the 23o inhibition potential toward hCE2.
# For fluorescence imaging, HepG2 cells were seeded in 96-well plates (8000 cells per well) with complete medium and then incubated for 24 hours. Afterwards, the cells were washed twice with FBS-free culture medium and then preincubated in the medium containing 23o (prepared in FBS-free at various concentrations) for 30 min with 5% CO2 at 37 °C. HepG2 cells were then co-incubated with NCEN (final concentration, 10 μM) for another 50 min to assess the intracellular hCE2 function, respectively. The living cells were imaged and analyzed using an ImageXpress® Micro Confocal High-Content Imaging system (Molecular Devices, Austria).
SMILES,IC50 [1] [µM],IC50 [2] [µM],Selectivity IC50(hCE1)/IC50(hCE2) [2],"Ki ([2]; Lineweaver-Burk plots, FD substrate, read-out: Ki against hCE2-mediated FD hydrolysis)","Inhibition mode against hCE2-mediated FD hydrolysis ([2]; inhibition kinetics, FD substrate)","IC50 ([3]; HepG2 cells, NCEN 10 μM substrate, read-out: IC50 against intracellular hCE2 in living HepG2 cells) [µM]","Inhibition of intracellular hCE2-mediated NCEN hydrolysis (fluorescence intensity, green channel) ([3]; living HepG2 cells, 0-20 μM, NCEN 10 μM, 50 min)"
"COc1ccc(COc2cc(-c3cc4ccc(OC)c(OC)c4c4[n+]3C(OC)CO4)ccc2OC)cc1 (centres unmarked) [Compound 23d, 3,9,10-trimethoxy-5-(4-methoxy-3-((4-methoxybenzyl)oxy)phenyl)-2,3-dihydrooxazolo[2,3-a]isoquinolin-4-ium]",> 100,6.89,>14.52,–,–,–,–
"COc1ccc(-c2cc3ccc(OC)c(OC)c3c3[n+]2C(OC)CO3)cc1OCc1ccc(C#N)cc1 (centres unmarked) [Compound 23g, 5-(3-((4-Cyanobenzyl)oxy)-4-methoxyphenyl)-3,9,10-trimethoxy-2,3-dihydrooxazolo[2,3-a]isoquinolin-4-ium]",> 100,3.33 ± 0.32,>30.07,–,–,–,–
"COc1ccc(-c2cc3ccc(OC)c(OC)c3c3[n+]2C(OC)CO3)cc1OCc1ccc([N+](=O)[O-])cc1 (centres unmarked) [Compound 23h, 3,9,10-Trimethoxy-5-(4-methoxy-3-((4-nitrobenzyl)oxy)phenyl)-2,3-dihydrooxazolo[2,3-a]isoquinolin-4-ium]",> 100,3.32 ± 0.87,>30.14,–,–,–,–
"COc1ccc(-c2cc3ccc(OC)c(OC)c3c3[n+]2C(OC)CO3)cc1OCc1ccc2cccnc2c1 (centres unmarked) [Compound 23j, 3,9,10-Trimethoxy-5-(4-methoxy-3-(quinolin-7-ylmethoxy)phenyl)-2,3-dihydrooxazolo[2,3-a]isoquinolin-4-ium]",> 100,3.77 ± 0.25,>26.51,–,–,–,–
"COc1ccc(-c2cc3ccc(OC)c(OC)c3c3[n+]2C(OC)CO3)cc1OCc1ccc(-c2ccccc2)cc1 (centres unmarked) [Compound 23l, 5-(3-([1,1′-Biphenyl]-4-ylmethoxy)-4-methoxyphenyl)-3,9,10-trimethoxy-2,3-dihydrooxazolo[2,3-a]isoquinolin-4-ium]",> 100,2.64 ± 0.45,>37.89,–,–,–,–
"COc1cc(COc2cc(-c3cc4ccc(OC)c(OC)c4c4[n+]3C(OC)CO4)ccc2OC)cc(OC)c1 (centres unmarked) [Compound 23o, 5-(3-((3,5-Dimethoxybenzyl)oxy)-4-methoxyphenyl)-3,9,10-trimethoxy-2,3-dihydrooxazolo[2,3-a]isoquinolin-4-ium]",> 100,1.19,>83.89,0.84 µM and 0.843 µM,mixed inhibitor,2.29,strongly inhibit

# Second part, the compound after the results:
IC50 [1] [µM],IC50 [2] [µM],Selectivity IC50(hCE1)/IC50(hCE2) [2],"Ki ([2]; Lineweaver-Burk plots, FD substrate, read-out: Ki against hCE2-mediated FD hydrolysis)","Inhibition mode against hCE2-mediated FD hydrolysis ([2]; inhibition kinetics, FD substrate)","IC50 ([3]; HepG2 cells, NCEN 10 μM substrate, read-out: IC50 against intracellular hCE2 in living HepG2 cells) [µM]","Inhibition of intracellular hCE2-mediated NCEN hydrolysis (fluorescence intensity, green channel) ([3]; living HepG2 cells, 0-20 μM, NCEN 10 μM, 50 min)",SMILES
4.04 ± 0.4,16 ± 1.49,>0.25,–,–,–,–,COc1ccc2cc(-c3ccc4c(c3)OCO4)[n+]3c(c2c1OC)OCC3OC (centres unmarked) [Compound 23a]
36.8 ± 7.7,41.7 ± 18.1,>0.88,–,–,–,–,COc1ccc2cc(-c3ccc4c(c3)OCO4)n(C(CO)OC)c(=O)c2c1OC (centres unmarked) [Compound 23b]
> 100,11.5 ± 1.76,>8.72,–,–,–,–,"COc1ccc(-c2cc3ccc(OC)c(OC)c3c3[n+]2C(OC)CO3)cc1OCc1ccc(S(C)(=O)=O)cc1 (centres unmarked) [Compound 23e, 3,9,10-Trimethoxy-5-(4-methoxy-3-((4-(methylsulfonyl)benzyl)oxy)phenyl)-2,3-dihydrooxazolo[2,3-a]isoquinolin-4-ium]"
> 100,5.73 ± 0.79,>17.46,–,–,–,–,"COC(=O)c1ccc(COc2cc(-c3cc4ccc(OC)c(OC)c4c4[n+]3C(OC)CO4)ccc2OC)cc1 (centres unmarked) [Compound 23f, 3,9,10-Trimethoxy-5-(4-methoxy-3-((4-(methoxycarbonyl)benzyl)oxy)phenyl)-2,3-dihydrooxazolo[2,3-a]isoquinolin-4-ium]"
> 100,2.43 ± 0.28,>41.22,–,–,–,–,"COc1ccc(-c2cc3ccc(OC)c(OC)c3c3[n+]2C(OC)CO3)cc1OCc1ccc(C(F)(F)F)cc1 (centres unmarked) [Compound 23i, 3,9,10-Trimethoxy-5-(4-methoxy-3-((4-(trifluoromethyl)benzyl)oxy)phenyl)-2,3-dihydrooxazolo[2,3-a]isoquinolin-4-ium]"
> 100,5.58 ± 0.94,>17.94,–,–,–,–,"COc1ccc(-c2cc3ccc(OC)c(OC)c3c3[n+]2C(OC)CO3)cc1OCc1ccc(C)cc1 (centres unmarked) [Compound 23k, 3,9,10-Trimethoxy-5-(4-methoxy-3-((4-methylbenzyl)oxy)phenyl)-2,3-dihydrooxazolo[2,3-a]isoquinolin-4-ium]"
> 100,2.33 ± 0.2,>42.81,–,–,–,–,"COc1ccc(-c2cc3ccc(OC)c(OC)c3c3[n+]2C(OC)CO3)cc1OCc1ccc(C(C)(C)C)cc1 (centres unmarked) [Compound 23m, 5-(3-((4-(tert-Butyl)benzyl)oxy)-4-methoxyphenyl)-3,9,10-trimethoxy-2,3-dihydrooxazolo[2,3-a]isoquinolin-4-ium]"
> 100,1.66 ± 0.21,>60.31,–,–,–,–,"COc1ccc(-c2cc3ccc(OC)c(OC)c3c3[n+]2C(OC)CO3)cc1OCc1ccc(C(C)C)cc1 (centres unmarked) [Compound 23n, 5-(3-((4-Isopropylbenzyl)oxy)-4-methoxyphenyl)-3,9,10-trimethoxy-2,3-dihydrooxazolo[2,3-a]isoquinolin-4-ium]"
2.64 ± 0.22,–,–,–,–,–,–,"COc1ccc(-c2cc(=O)c3c(O)c(OC)c(O)c(OC)c3o2)cc1 [Nevadensin, reference compound]"
